Measurements published in PMC10035947, “Development of novel anilinoquinazoline-based carboxylic acids as non-classical carbonic anhydrase IX and XII inhibitors” (Journal of Enzyme Inhibition and Medicinal Chemistry, 2023).

Experiments:
[1] = system: SR; experiment: NCI SRB assay; format: cell-based, human; conditions: for GI%: 10 μM; for Growth Percent: 1.00E-5 Molar
[2] = system: EKVX; experiment: NCI SRB assay; format: cell-based, human; conditions: for GI%: 10 μM; for Growth Percent: 1.00E-5 Molar
[3] = system: M14; experiment: NCI SRB assay; format: cell-based, human; conditions: for GI%: M14, 10 μM; for Growth Percent: M14, 1.00E-5 Molar
[4] = system: IGROV1; experiment: NCI SRB assay; format: cell-based, human; conditions: for GI%: IGROV1, 10 μM; for Growth Percent: IGROV1, 1.00E-5 Molar
[5] = system: TK-10; experiment: NCI SRB assay; format: cell-based, human; conditions: for GI%: TK-10, 10 μM; for Growth Percent: TK-10, 1.00E-5 Molar
[6] = system: UO-31; experiment: NCI SRB assay; format: cell-based, human; conditions: for GI%: UO-31, 10 μM; for Growth Percent: UO-31, 1.00E-5 Molar
[7] = system: MCF7; experiment: NCI SRB assay; format: cell-based, human; conditions: for GI%: MCF7, 10 μM; for Growth Percent: MCF7, 1.00E-5 Molar
[8] = system: MDA-MB-231; experiment: NCI SRB assay; format: cell-based; conditions: for Growth Percent: MDA-MB-231/ATCC, 1.00E-5 Molar
[9] = system: T-47D; experiment: NCI SRB assay; format: cell-based, human; conditions: for GI%: 10 μM; for Growth Percent: 1.00E-5 Molar
[10] = system: 59 human cancer cell lines representing nine tumour subpanels; experiment: NCI SRB assay, panel and subpanel summaries; conditions: all cell lines; for Mean GI %: 10 μM; for Mean Growth Percent: 1.00E-5 Molar
[11] = system: RXF 393; experiment: NCI SRB assay; format: cell-based, human; conditions: RXF 393, 1.00E-5 Molar

Row | SMILES | GI% [1] | Growth Percent [1] | GI% [2] | Growth Percent [2] | GI% [3] | Growth Percent [3] | GI% [4] | Growth Percent [4] | GI% [5] | Growth Percent [5] | GI% [6] | Growth Percent [6] | GI% [7] | Growth Percent [7] | Growth Percent [8] | GI% [9] | Growth Percent [9] | Mean GI % [10] | Mean Growth Percent [10] | other results
1 | Cc1ccc(-c2nc(Nc3ccc(C(=O)O)cc3)c3ccccc3n2)cc1 [8b, 4-((2-(p-Tolyl)quinazolin-4-yl)amino)benzoic acid] | 38% | 61.50% | 28% | 72.41% | – (Only GI% higher than 20% are shown) | 80.88% | – (Only GI% higher than 20% are shown) | 92.17% | – (Only GI% higher than 20% are shown) | 113.38% | 58% | 41.73% | 37% | 63.19% | 87.83% | 32% | 68.59% | 20% | 80.19% | 
2 | COc1ccc(-c2nc(Nc3ccccc3C(=O)O)c3ccccc3n2)cc1 [6c, 2-((2–(4-Methoxyphenyl)quinazolin-4-yl)amino)benzoic acid] |  |  | 66% | 33.92% | 48% | 52.09% | 21% | 78.77% |  | 74.99% |  |  | 49% | 51.24% |  | 71% | 29.31% | 52% | 48.18% | Growth Percent [11]: 68.31%
3 | Cc1cccc(-c2nc(Nc3ccccc3C(=O)O)c3ccccc3n2)c1 [6a, 2-((2-(m-Tolyl)quinazolin-4-yl)amino)benzoic acid] | 77% | 23.03% | 79% | 20.98% | 75% | 25.25% | 41% | 59.24% | – (Only GI% higher than 20% are shown) | 85.85% | 69% | 31.01% | 76% | 23.97% | 66.08% | 73% | 26.79% | 63% | 37.30% | GI% ([8]; MDA-MB-231, 10 μM): 34%
